Assay results as given in PMC13578988, “No ancillary proteins are essential for the functional heterologous expression of the homomeric α6 nicotinic acetylcholine receptor from the brown castor tick Ixodes ricinus” (Current Research in Parasitology & Vector-borne Diseases, 2026).
pEC50: −log10 of the molar value.

Tests used:
[1] = system: T1, Iricα6B (homomeric α6 nicotinic acetylcholine receptor, splice variant B); assay: two-electrode voltage clamp in Xenopus laevis oocytes expressing Iricα6B (agonist dose-response); type: cell-based, Ixodes ricinus
T1 construct: full-length Iricα6B, 517 amino acids (exon 3b only), homopentamer

Asu-ACR-16 = conditions: cited from earlier work

SMILES | pEC50 [1] | pEC50 (Asu-ACR-16)
CC(=O)OCC[N+](C)(C)C [acetylcholine] | 5.70 | 
CN1CCC[C@H]1c1cccnc1 [nicotine] |  | 5.35
CC(=O)OCC[N+](C)(C)C [ACh, acetylcholine] |  | 5.23
CN/C(=N/CC1CCOC1)N[N+](=O)[O-] (centres unmarked) [dinotefuran] | 9.38 | 
O=[N+]([O-])NC1=NCCN1Cc1ccc(Cl)nc1 [imidacloprid] | 7.94 | 
